This is an account of results in ChEMBL document CHEMBL1141875, “Antitumor-active cobalt-alkyne complexes derived from acetylsalicylic acid: studies on the mode of drug action” (J Med Chem, 2005).

Series [1] in a line: Antiproliferative activity in MCF-7 human breast cancer cells. It counts as functional, cell-based, MCF7.
Series [2] in a line: Antiproliferative activity in MDA-MB 231 human breast cancer cells. Format: functional, cell-based, Cancer cell lines.
The test system of series [3] is Cancer cell lines. The series can be described thus: Content in MDA-MB 231 human breast cancer cell nuclei was reported. It counts as functional, cell-based.
Series [4] deals with Cancer cell lines. The series can be described thus: Percentage of content in MCF-7 human breast cancer cell nuclei was reported. Format: functional, cell-based.
The test system of series [5] is Cancer cell lines. The series can be described thus: Percentage of content in MDA-MB 231 human breast cancer cell nuclei was reported. It counts as functional, cell-based.
The test system of series [6] is Nucleic Acid. The series can be described thus: DNA-binding efficacy. Format: nucleic-acid assay.
In series [7] the test system is Cancer cell lines. Description: Content in MCF-7 human breast cancer cell nuclei was reported. It counts as functional, cell-based.
The subject of series [8] is Glutathione reductase (Homo sapiens). Description: Percentage influence on cellular glutathione reductase activity.
The nature of series [9]: Lipophilicity was reported. The settings on record: human, octanol/water. It counts as physicochemical.
[10] abbreviates: Homo sapiens, Cancer cell lines.

Consider `O=c1[nH]cc(F)c(=O)[nH]1` [FLUOROURACIL], for which the half-inhibitory concentration (IC50) came to 4.8 µM in series [1] (Homo sapiens, MCF7) and 9.6 µM in [2] (setting [10]).
On the same counts, the results for `N[C@@H](Cc1ccc(N(CCCl)CCCl)cc1)C(=O)O` are 5.7 µM and 3.9 µM.
As for Co-ASS [listing 1 of 2 here], the Activity was found to be 0.22 pmol/µg in series [3]; 0.8% in [4]; 5% in series [5]; 9.82 pmol/µg in [6]; 0.12 pmol/µg in series [7]; 93% in [8].
As for Co-ASS [listing 2 of 2 here], the IC50 was 1.4 µM in series [1] (mcf7) and 1.9 µM in [2] (cancer cell lines). For the same molecule, the “Log Kw” value in series [9] amounted to 4.91.
As to CISPLATIN, the IC50 in series [1] (mcf7) came out at 2 µM; in series [2] (cancer cell lines), 4 µM.
